Patent publication US8921122B2, “System and method for quantitative assessment of biological migration behavior” (The General Hospital Corporation, priority 2008, dated 2014)

What was measured:
Assay type in all cases: cell-based, human
[1] = test system: neutrophils; experiment: Neutrophil migration assay in chemoattractant gradients (switching gradient device); conditions: for average displacement in the direction of the gradient: 20 nM/450 μm fMLP or 10 nM/450 μm IL-8 gradient; for directional bias of migration profile (comparison): comparison between substrates / between chemoattractants; for Random motility coefficient (μ): initial 10 minutes of migration
Method: The gradient generating device used to study cell migration consists of two inlets, one outlet, and a cell loading port. In a similar manner as explained above, the device was primed after functionalizing the channel surface with adhesion molecules. Two syringes were prepared, one with only buffer containing 0.2% HSA while the other also containing the appropriate concentration of chemokine. Two chemoattractants, either recombinant human interleukin-8 (IL8, Catalog #208-IL, R&D Systems inc.) or N-formyl-methionyl-leucyl-phenylalanine (fMLP, Part # F3506, Sigma-Aldrich) were employed at 10 nM and 20 nM concentrations. For consistency, the two syringes were connected to the device such that chemokine gradient in the cell capture and migration chambers was always in the same orientation, from top (100%) to bottom (0%). After the device was primed, inlet ports were clamped, and the blood sample was loaded through the cell loading port as described in the following section.
A 1.25 mm lancet (Part #366579, Becton Dickinson) was used to prick a finger of a subject, and 10 μL whole blood was drawn with a pipette. Before withdrawing the blood, 70 μL of HBSS mixed with sodium heparin (Part #367871, Becton Dickinson) was injected into the open end of a loading needle using a pipette. The blood in the pipette was then directly mixed with the heparin solution inside the needle. A slight pressure was gradually applied to the open end of the needle using an index finger to push the blood sample through the tubing until a small drop of fluid appeared on the other end of the tubing. To avoid entrapment of air bubbles while connecting the tubing to the PDMS device, a drop of HBSS was always present in excess at the connecting ports of the device. The loose end of the sample tubing was held with forceps and carefully inserted in the PDMS port. Once a sealed connection was established, pressure was again applied to the loading needle to push samples through the cell capture and migration chamber. The inlet and outlet tubings were then clamped using binder clips for 5-10 minutes allowing cells to interact and bind with the glycoprotein molecules.
For the neutrophil capture characterization experiments, images for 7-10 sections (each 750 μm long, FIG. 2B) were acquired at 2 s interval using time lapse microscopy and at least 10 frames were captured. This was done to make sure that only adherent neutrophils were counted. An inverted Olympus microscope (Model # CKX41) and a CMOS color camera (Pixelink PLA742) were used to capture time lapse images in phase contrast mode. A 10× ocular and 10× objective magnification were used. The neutrophils captured in the chambers were counted manually in 7-10 distinct areas for each concentration. The average number of captured cells was calculated from three repeated experiments for each concentration and CAM. Captured time lapse images were converted to 8 bit and individual cells were tracked using Metamorph imaging software (Ver 4.1, Universal Imaging Corporation). Elapsed time and migration distance from the origin in the Y direction were derived for each cell and average displacements were calculated for the entire cell population in consideration. Migration curves representing the average distance traveled in the direction of increasing chemokine concentration against time were plotted and compared. It is notable that the slope of gradient along the flow path in the cell chamber gradually changes depending on the flow rates and the diffusivities of chemoattractants. Therefore, to maintain consistency, only the first upstream quarter of the cell chamber was considered for microscopic observation where the variations in gradient profile are minimal. […]

[2] = test system: neutrophils; experiment: Further migration analysis on P-selectin functionalized migration chamber with IL-8 gradient
Method: The surface of the migration chamber of a device as described herein was functionalized with P-selectin by exposure to a 10 nM solution of P-selectin for 10 minutes, followed by Hanks buffer wash for 5 minutes. Capillary blood was collected from the tip of a finger using a lancet. A volume of 10 μL (equivalent of a small droplet) was collected in 10 μL heparin 2×, mixed well by repeated pipetting, and introduced into the device. After filling the main channel, a slow flow rate of the blood was established by raising the inlet tube at 4-5 cm above the level of the device.
After 5 minutes, the blood inlet was clamped, and buffer was introduced from one of the gradient generators that had Hanks buffer solution at both inlets. After 1 minute of washing all the red blood cells through the device, only leukocytes were left on the P selectin coated surface of the migration chamber. Based on observed morphological characteristics, most of the remaining captured cells appeared to be neutrophils. After 5-10 minutes of washing using a buffer, a gradient of IL-8 (from 0 to 12 nM over 400 μm distance) was rapidly established using the second gradient chamber. […]
The displacement of neutrophils in the direction of the gradient was also measured as a function of time.

[3] = test system: neutrophils; experiment: Neutrophil capture from whole blood on CAM-coated microfluidic channels
Description: Three different adhesion molecules (P-selectin, E-selectin and fibronectin) were used to capture primary neutrophils from whole blood in the microfluidic channels. These substrates were chosen because of their significant role in neutrophil trafficking in vivo. To characterize the neutrophil capture efficiency, the cell capture chambers were coated with the adhesion molecules by flowing through solutions of six different concentrations of each adhesion molecule (concentrations shown in Table 1). Solutions were prepared by diluting the stock solution in sterile water or phosphate buffered saline (PBS) as advised by the vendors. These dilutions were loaded in the six cell capture chambers of the device and incubated for 1 h at room temperature. After one hour, P-selectin was aspirated and the flow chambers perfused with 2% HSA (Human Serum Albumin, Sigma-Aldrich Catalog # A5843) in Hank's buffer saline solution (HBSS, Sigma-Aldrich Catalog # H9269) to block non-specific binding sites and incubated for at least 15 minutes.
The PDMS device used to characterize cell capture consists of six distinct parallel channels each having an inlet and an outlet port (FIG. 2A). The channel dimensions of each segment of the capture device are 750×450×80 μm (L×W×H). The length of each segment was chosen such that it will conveniently fit in the field of view at 10× ocular and 10× objective magnification. 10 μL whole blood was mixed with 70 μL it heparinized HBSS solution and loaded in the cell chamber. Six 1 mL syringes (Part #309602, Becton, Dickinson and Company, Franklin Lakes, N.J.) were filled with HBSS containing 0.2% HSA. Most of the air trapped in the dead volume of the syringe was eliminated by tapping the inverted syringes. Syringes were then connected to tygon tubing approximately 10 to 12 inches long (Part # TGY-010-C, Small parts Inc.) through the needles (Part # NE-301PLC, Small parts Inc.). The syringes were placed on the syringe pump rack (PHD 2000, Harvard Apparatus, Holliston, Mass.), and the loose ends of the tubing were connected to the inlets of the device properly secured on the microscope stage. Smaller fragments of tubing were connected to the outlet ports. The pump was turned on at the rate of 4-5 μL/min, and the outlet tubings were clamped once the channels were filled with fluid, while leaving the pump running. This priming step was necessary to eliminate any trapped air pockets by continuing the inflow that pressurizes the air bubbles to diffuse through the porous PDMS matrix. Blood sample could be loaded as soon as all the air pockets were eliminated.
A 1.25 mm lancet (Part #366579, Becton Dickinson) was used to prick a finger of a subject, and 10 μL whole blood was drawn with a pipette. […]

[4] = test system: neutrophils; experiment: Neutrophil capture on CAM-coated channels primed with 20 nM fMLP; conditions: CAM coated channel primed with 20 nM fMLP
Method: To identify whether the chemoattractant exposure has any significant effect on neutrophil capture from whole blood, the CAM coated channel was primed with 20 nM fMLP, and the cells were captured in a similar manner as described above. The effects of chemotactic priming of channels appeared significant from the statistical analysis (P<<0.05).

[5] = 50 μg/mL E-selectin surface, first 30 minutes
[6] = 200 μg/mL fibronectin surface, 30 minutes
[7] = substrate E-selectin, mean of about 15 cells
[8] = substrate Fibronectin, less than 10 cells
[9] = substrate P-selectin, mean of about 15 cells

## CSCC[C@H](NC=O)C(=O)N[C@@H](CC(C)C)C(=O)N[C@@H](Cc1ccccc1)C(=O)O [fMLP, N-formyl-methionyl-leucyl-phenylalanine, reference compound]
[1]; [5]
  average displacement in the direction of the gradient: 50 μm
[1]; [6]
  average displacement in the direction of the gradient: about 65 μm
[1]
  directional bias of migration profile (comparison): greater directional bias than IL8
[1]; [7]
  Random motility coefficient (μ): 23.64 μm^2/minute
[1]; [8]
  Random motility coefficient (μ): 17.7 μm^2/minute
[1]; [9]
  Random motility coefficient (μ): 8.07 μm^2/minute

## IL-8: recombinant human interleukin-8, chemoattractant (Catalog #208-IL, R&D Systems)
[1]; [5]
  average displacement in the direction of the gradient: 70 μm
[1]; [6]
  average displacement in the direction of the gradient: 35 μm
[1]; [7]
  Random motility coefficient (μ): 33.92 μm^2/minute
[1]; [8]
  Random motility coefficient (μ): 27.01 μm^2/minute
[1]; [9]
  Random motility coefficient (μ): 14.89 μm^2/minute
[2]; IL-8 gradient from 0 to 12 nM over 400 μm, P-selectin coated surface
  neutrophil migration response to gradient: sustained migration in the direction of the gradient

## fibronectin
[3]; coated surfaces at 200 μg/mL concentration of priming solution, whole blood
  cells captured: 3-4 cells/mm^2
[4]
  cells captured on primed vs. unprimed surface: five times more cells

B1: E-selectin: Human recombinant E-selectin, cell adhesion molecule used to coat capture surface (R&D Systems ADP1-050) (protein, UniProt P16581 22-610, looked up)
E-selectin: WSYNTSTEAMTYDEASAYCQQRYTHLVAIQNKEEIEYLNSILSYSPSYYWIGIRKVNNVWVWVGTQKPLTEEAKNWAPGEPNNRQKDEDCVEIYIKREKDVGMWNDERCSKKKLALCYTAACTNTSCSGHGECVETINNYTCKCDPGFSGLKCEQIVNCTALESPEHGSLVCSHPLGNFSYNSSCSISCDRGYLPSSMETMQCMSSGEWSAPIPACNVVECDAVTNPANGFVECFQNPGSFPWNTTCTFDCEEGFELMGAQSLQCTSSGNWDNEKPTCKAVTCRAVRQPQNGSVRCSHSPAGEFTFKSSCNFTCEEGFMLQGPAQVECTTQGQWTQQIPVCEAFQCTALSNPERGYMNCLPSASGSFRYGSSCEFSCEQGFVLKGSKRLQCGPTGEWDNEKPTCEAVRCDAVHQPPKGLVRCAHSPIGEFTYKSSCAFSCEEGFELHGSTQLECTSQGQWTEEVPSCQVVKCSSLAVPGKINMSCSGEPVFGTVCKFACPEGWTLNGSAARTCGATGHWSGLLPTCEAPTESNIPLVAGLSAAGLSLLTLAPFLLWLRKCLRKAKKFVPASSCQSLESDGSYQKPSYIL
[3]; surface coated with 50 μg/mL solution, whole blood
  maximum capture efficiency: ~15 cells/mm^2
[4]
  cells captured on primed vs. unprimed surface: approximately twice as many cells

B2: P-selectin: Human recombinant P-selectin, cell adhesion molecule used to coat capture surface (R&D Systems ADP3-050) (protein, UniProt P16109 42-830, looked up)
P-selectin: WTYHYSTKAYSWNISRKYCQNRYTDLVAIQNKNEIDYLNKVLPYYSSYYWIGIRKNNKTWTWVGTKKALTNEAENWADNEPNNKRNNEDCVEIYIKSPSAPGKWNDEHCLKKKHALCYTASCQDMSCSKQGECLETIGNYTCSCYPGFYGPECEYVRECGELELPQHVLMNCSHPLGNFSFNSQCSFHCTDGYQVNGPSKLECLASGIWTNKPPQCLAAQCPPLKIPERGNMTCLHSAKAFQHQSSCSFSCEEGFALVGPEVVQCTASGVWTAPAPVCKAVQCQHLEAPSEGTMDCVHPLTAFAYGSSCKFECQPGYRVRGLDMLRCIDSGHWSAPLPTCEAISCEPLESPVHGSMDCSPSLRAFQYDTNCSFRCAEGFMLRGADIVRCDNLGQWTAPAPVCQALQCQDLPVPNEARVNCSHPFGAFRYQSVCSFTCNEGLLLVGASVLQCLATGNWNSVPPECQAIPCTPLLSPQNGTMTCVQPLGSSSYKSTCQFICDEGYSLSGPERLDCTRSGRWTDSPPMCEAIKCPELFAPEQGSLDCSDTRGEFNVGSTCHFSCDNGFKLEGPNNVECTTSGRWSATPPTCKGIASLPTPGVQCPALTTPGQGTMYCRHHPGTFGFNTTCYFGCNAGFTLIGDSTLSCRPSGQWTAVTPACRAVKCSELHVNKPIAMNCSNLWGNFSYGSICSFHCLEGQLLNGSAQTACQENGHWSTTVPTCQAGPLTIQEALTYFGGAVASTIGLIMGGTLLALLRKRFRQKDDGKCPLNPHSHLGTYGVFTNAAFDPSP
[3]; before chemokine introduced, P-selectin functionalized surface (FIGS. 7A-7C)
  neutrophil activation by binding to capture surface (morphology): did not induce neutrophil activation
[3]; surface coated with 25 μg/mL solution, whole blood
  maximum capture efficiency: approximately 35 cells/mm^2
[4]
  cells captured on primed vs. unprimed surface: not significant
[1]
  directional bias of migration profile (comparison): more directionally biased and persistent
[2]; in the absence of IL-8
  chemokinesis of neutrophils on functionalized substrate: No significant chemokinesis
